Test results published in the NIST ThermoML archive (doi:10.1021/je050165t).
± gives the expanded uncertainty stated by the source.

Assay: xn = mol fraction of the nth substance listed
Conditions: 101 kPa, Liquid

CCCCn1cc[n+](C)c1.F[P-](F)(F)(F)(F)F [1-butyl-3-methylimidazolium hexafluorophosphate] + CO
Conditions | mass density, 298.15 K [kg/m3] | mass density, 303.15 K [kg/m3] | mass density, 308.15 K [kg/m3] | mass density, 313.15 K [kg/m3] | mass density, 318.15 K [kg/m3] | speed of sound, 298.15 K [m/s] | speed of sound, 303.15 K [m/s] | speed of sound, 308.15 K [m/s] | speed of sound, 313.15 K [m/s] | speed of sound, 318.15 K [m/s]
x1 = 0.0223 | 852.499 ± 1.4 | 847.778 ± 1.5 | 843.039 ± 1.5 | 838.277 ± 1.5 | 833.49 ± 1.5 | 1132.1 ± 5.1 | 1116.9 ± 5 | 1101.8 ± 5 | 1086.7 ± 4.9 | 1071.7 ± 4.9
x1 = 0.0484 | 914.856 ± 1 | 910.156 ± 1.1 | 905.442 ± 1.1 | 900.703 ± 1.1 | 895.952 ± 1.2 | 1155.5 ± 5.1 | 1141.5 ± 5.1 | 1127.5 ± 5 | 1113.6 ± 5 | 1099.7 ± 5
x1 = 0.0786 | 972.943 ± 0.69 | 968.272 ± 0.71 | 963.583 ± 0.74 | 958.877 ± 0.77 | 954.071 ± 0.8 | 1180.7 ± 5.2 | 1167.7 ± 5.2 | 1154.6 ± 5.1 | 1141.6 ± 5.1 | 1128.6 ± 5
x1 = 0.1869 | 1111.37 ± 1.2 | 1106.76 ± 1.2 | 1102.15 ± 1.2 | 1097.53 ± 1.2 | 1092.91 ± 1.1 | 1261.6 ± 5.5 | 1249.8 ± 5.4 | 1238 ± 5.4 | 1226.1 ± 5.4 | 1214.3 ± 5.3
x1 = 0.2156 | 1136.5 ± 1.4 | 1131.89 ± 1.4 | 1127.3 ± 1.3 | 1122.7 ± 1.3 | 1118.12 ± 1.3 | 1280.7 ± 5.5 | 1268.9 ± 5.5 | 1257.2 ± 5.5 | 1245.5 ± 5.4 | 1233.8 ± 5.4
x1 = 0.3573 | 1223.91 ± 2 | 1219.39 ± 1.9 | 1214.87 ± 1.9 | 1210.36 ± 1.9 | 1205.87 ± 1.9 | 1340.7 ± 5.8 | 1329.1 ± 5.7 | 1317.5 ± 5.7 | 1306 ± 5.7 | 1294.5 ± 5.6
x1 = 0.4572 | 1263.6 ± 2.2 | 1259.04 ± 2.2 | 1254.81 ± 2.2 | 1250.5 ± 2.2 | 1246.03 ± 2.1 | 1366.7 ± 5.9 | 1355.1 ± 5.8 | 1343.6 ± 5.8 | 1332.1 ± 5.8 | 1320.7 ± 5.7
x1 = 0.6222 | 1308.96 ± 2.6 | 1304.59 ± 2.5 | 1300.24 ± 2.5 | 1295.96 ± 2.5 | 1291.78 ± 2.5 | 1400.5 ± 6 | 1388.9 ± 6 | 1377.4 ± 6 | 1365.9 ± 5.9 | 1354.7 ± 5.9
x1 = 0.7736 | 1337.5 ± 2.8 | 1333.24 ± 2.8 | 1328.99 ± 2.8 | 1324.76 ± 2.7 | 1320.54 ± 2.7 | 1421.1 ± 6.2 | 1409.5 ± 6.1 | 1398 ± 6.1 | 1386.6 ± 6 | 1375.3 ± 6
x1 = 0.9208 | 1357.7 ± 3 | 1353.55 ± 3 | 1349.39 ± 3 | 1345.23 ± 2.9 | 1341.08 ± 2.9 | 1435.2 ± 6.3 | 1423.5 ± 6.2 | 1411.9 ± 6.2 | 1400.6 ± 6.2 | 1389.4 ± 6.1
x1 = 1 | 1366.66 ± 3.1 | 1362.4 ± 3.1 | 1358.3 ± 3.1 | 1354.19 ± 3 | 1350.08 ± 3 | 1442.4 ± 6.3 | 1430.6 ± 6.3 | 1419 ± 6.3 | 1407.5 ± 6.2 | 1396.3 ± 6.2
